Experimental data as given in US20080070958A1, “Therapeutic Agent for Keratoconjunctival Disorder” (priority 2004, published 2008).

Test system: corneal damage in corneal disorder models
Experiment: Test for therapeutic effect on corneal damage (rat corneal disorder model, exorbital lacrimal gland removal, fluorescein staining score)
Type: in vivo, male SD rats
Conditions: for Improvement ratio (%): {(control)-(compound)}/{(control)-(normal eye)}x100; for Mean value of total scores: fluorescein staining score of cornea (upper, middle, lower parts, each 0-3), mean of 8 eyes
Protocol: Test for Therapeutic Effect on Corneal Damage Using male SD rats, in accordance with the method of Fujihara et al. (Invest. Ophthalmol. Vis. Sci. 42 (1): 96-100 (2001)), corneal disorder models were produced. After the production of the corneal disorder models, the improvement ratio of a corneal damage was evaluated according to the method of Murakami et al. (Journal of the eye 21 (1): 87-90 (2004)). Male SD rats were systemically anesthetized by an administration of Nembutal. Subsequently the exorbital lacrimal gland of each rat was removed and a corneal damage was induced over a period of 2 months. Then, E-4-[4-(5-methyl-2-phenyl-4-oxazolylmethoxy) benzyloxyimino]-4-phenylbutyric acid (Compound A), Z-2-[4-(5-methyl-2-phenyl-4-oxazolylmethoxy) benzyloxyimino]-2-(4-phenoxyphenyl) acetic acid (Compound B), 2-[2-propyl-3-[3-[2-ethyl-4-(4-fluorophenyl)-5-hydroxyphenoxy]propoxy]phenoxy]sodium benzoate (Compound C) or 2(S)-methoxy-3-[4-[3-(4-phenoxyphenoxy)propoxy]phenyl] propionic acid (Compound D) was administered to the rats as follows. A physiological saline solution of Compound A (0.006%) was instilled into both eyes 6 times a day for 7 days (one group consisting of 4 animals, 8 eyes). A physiological saline solution of Compound B (0.006%) was instilled into both eyes 6 times a day for 7 days (one group consisting of 4 animals, 8 eyes). A physiological saline solution of Compound C (0.006%) was instilled into both eyes 6 times a day for 7 days (one group consisting of 4 animals, 8 eyes). A phosphate-buffered saline (PBS) solution of Compound D (0.002%) was instilled into both eyes 6 times a day for 7 days (one group consisting of 4 animals, 8 eyes). In a control group, physiological saline or PBS was instilled into both eyes 6 times a day for 7 days (one group consisting of 4 animals, 8 eyes). Seven days after the start of instillation, the damaged parts of the cornea were stained with fluorescein. For each of the upper, middle and lower parts of the cornea, the degree of fluorescein staining was evaluated by scoring according to the criteria shown below and the mean value of the total scores for each of the above-mentioned parts was calculated. • 0: No punctate staining • 1: Scattered staining (punctate staining being separated) • 2: Moderate staining (a part of punctuate staining being adjacent) • 3: Heavy staining (punctate staining being barely separated) (Results) By taking the mean value of the total scores for the control group (physiological saline or PBS) as a standard (improvement ratio: 0%), the calculation was carried out. Each of the improvement ratios for the Compound A administration group, the Compound B administration group and the Compound C administration group is shown in Table 1 and the improvement ratio for the Compound D administration group is shown in Table 2. The mean value of the scores is a mean of those of 8 cases, respectively. The improvement ratio was calculated according to the following equation. Improvement ratio (%)={(control)−(the present compound)}/damage degree×100 Damage degree={(control)−(normal eye)}

[1] = 0.006% in physiological saline instilled into both eyes 6 times a day for 7 days, vs physiological saline control (0%)
[2] = 0.006% in physiological saline instilled into both eyes 6 times a day for 7 days, normal eye 3.0, saline control 6.1

SMILES	Improvement ratio (%) [1] [%]	Mean value of total scores [2]	Improvement ratio (%) (0.002% in PBS instilled into both eyes 6 times a day for 7 days, vs PBS control (0%))	Mean value of total scores (0.002% in PBS instilled into both eyes 6 times a day for 7 days, normal eye 3.1, PBS control 5.6)
Cc1oc(-c2ccccc2)nc1COc1ccc(CO/N=C(\C(=O)O)c2ccc(Oc3ccccc3)cc2)cc1 [Compound B, Z-2-[4-(5-methyl-2-phenyl-4-oxazolylmethoxy)benzyloxyimino]-2-(4-phenoxyphenyl) acetic acid]	32.3	5.1	–	–
CO[C@@H](Cc1ccc(OCCCOc2ccc(Oc3ccccc3)cc2)cc1)C(=O)O [Compound D, 2(S)-methoxy-3-[4-[3-(4-phenoxyphenoxy)propoxy]phenyl] propionic acid]	–	–	12.0	5.3
Cc1oc(-c2ccccc2)nc1COc1ccc(CO/N=C(\CCC(=O)O)c2ccccc2)cc1 [Compound A, E-4-[4-(5-methyl-2-phenyl-4-oxazolylmethoxy)benzyloxyimino]-4-phenylbutyric acid]	32.3	5.1	–	–
CCCc1c(OCCCOc2cc(O)c(-c3ccc(F)cc3)cc2CC)cccc1Oc1ccccc1C(=O)[O-].[Na+] [Compound C, 2-[2-propyl-3-[3-[2-ethyl-4-(4-fluorophenyl)-5-hydroxyphenoxy]propoxy]phenoxy]sodium benzoate]	38.7	4.9	–	–
